Source: paper PMC7449217, “The FDA-Approved Drug Nelfinavir Inhibits Lytic Cell-Free but Not Cell-Associated Nonlytic Transmission of Human Adenovirus” (Antimicrobial Agents and Chemotherapy, 2020)
Counter-ions that a name gives are not always drawn.

System: uninfected A549 cells
Assay: cellular impedance measurement (xCELLigence), nelfinavir toxicity
Type: cell-based, human
Method: Impedance-based assays were performed using the xCELLigence system (Roche Applied Science and ACEA Biosciences) as described previously ([152], [153]), according to the manufacturer’s instructions ([177]), in a cell culture environment (37°C, 5% CO2, and 95% humidity) in duplicates. The 16-well E plates have a gold-plated sensor array embedded in their glass bottom by which the electrical impedance across each well bottom is measured. The impedance per well, termed the cell index (CI), is recorded as a dimensionless quantity. The background CI was assessed following the addition of 50 μl supplemented medium to each well and equilibration in the incubation environment. After 30 min of equilibration, 9,000 A549 cells in 50 μl supplemented medium were added per well, and measurement was started.
For the quantification of nelfinavir toxicity, 50 μl of the supernatant was removed 18 h later and replaced with 2-fold-concentrated nelfinavir or DMSO solvent as the control dilution in supplemented medium (final nelfinavir concentration of 0.4 to 100 μM in 100 μl/well). The control was supplemented medium. Impedance was recorded every 15 min over 5 days. The TC50 indicates the concentration of nelfinavir that caused a 50% impedance reduction compared to the solvent-treated cells. The TC50 was calculated by nonlinear regression of the solvent-normalized CI over the concentration of nelfinavir.

## Cc1c(O)cccc1C(=O)N[C@@H](CSc1ccccc1)[C@H](O)CN1C[C@H]2CCCC[C@H]2C[C@H]1C(=O)NC(C)(C)C [Nelfinavir, Nelfinavir mesylate]
Uninfected A549, up to 6.25 µM, more than 4 days of incubation
  toxicity in cell index (CI) profiles: little signs of toxicity
Uninfected A549 cells, incubation up to 115 h, xCELLigence
  median toxicity TC50 (cell impedance): 25.7 µM
